Experimental findings from paper PMC8164802, “Biological evaluation of Safrole oil and Safrole oil Nanoemulgel as antioxidant, antidiabetic, antibacterial, antifungal and anticancer” (BMC Complementary Medicine and Therapies, 2021) are described below.

In this assay the target is T1, porcine pancreatic α-amylase (Sus scrofa, UniProt P00690).
T1 construct: gene AMY2
As to the kind of experiment: DNSA colorimetric assay of starch hydrolysis, […] nm. In kind it is biochemical.

T1 sequence (P00690 16-511): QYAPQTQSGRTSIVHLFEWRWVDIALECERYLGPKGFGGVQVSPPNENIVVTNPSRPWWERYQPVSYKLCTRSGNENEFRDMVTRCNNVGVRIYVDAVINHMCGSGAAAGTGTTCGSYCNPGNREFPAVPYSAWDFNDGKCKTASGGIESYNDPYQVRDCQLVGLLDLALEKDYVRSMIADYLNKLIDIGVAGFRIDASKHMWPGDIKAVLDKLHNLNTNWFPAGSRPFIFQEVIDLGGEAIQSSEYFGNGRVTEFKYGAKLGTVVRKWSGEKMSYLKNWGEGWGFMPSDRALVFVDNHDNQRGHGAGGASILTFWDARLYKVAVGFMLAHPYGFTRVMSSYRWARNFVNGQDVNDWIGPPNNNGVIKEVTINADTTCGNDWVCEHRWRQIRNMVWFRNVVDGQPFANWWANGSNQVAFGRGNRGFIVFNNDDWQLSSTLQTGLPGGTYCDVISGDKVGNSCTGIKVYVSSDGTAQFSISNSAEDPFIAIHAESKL

`C=CCc1ccc2c(c1)OCO2` [Safrole, 1-allyl-3,4-methylenedioxybenzene] gave a half-maximal inhibitory concentration (IC50) of 70 µM.
